The values that follow come from PubChem BioAssay (NCI).

Some test systems named below: HOP-62 NSCLC; KM12 colon; MALME-3M melanoma; SF-295 CNS; SK-MEL-2 melanoma; SK-MEL-28 melanoma; SNB-75 CNS; T-47D breast; TK-10 renal; UACC-257 melanoma.
Common to all, as to assay: DTP human tumour cell line panel, 48 h

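Values below derive from 48-hour exposures of cells grown in 96-well plates, with endpoints linearly interpolated between the two concentrations bracketing the appropriate inhibition level. TGI: total growth inhibition.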 Where only a bound is given, the exact number is not on record here.

As a reminder, the TGI is the concentration at which net growth stops.

`O=C1CC(NCc2ccccc2)c2c(Cl)sc(Cl)c21` (configuration not stated): the TGI was greater than 88.1 µM with HOP-62 NSCLC; greater than 93.2 µM in the test with KM12 colon; 44.4 µM in the test on MALME-3M melanoma; greater than 100 µM in the test on SF-295 CNS; 51.5 µM in the test with SK-MEL-2 melanoma; 76.7 µM in the test with SK-MEL-28 melanoma. For the same compound, the TGI with SNB-75 CNS is 80.6 µM; in the test with T-47D breast, greater than 100 µM; in the test on TK-10 renal it was greater than 68.7 µM; in the test on UACC-257 melanoma, greater than 63 µM.

On to `COc1ccc(/C=C2\C[C@H]3[C@@H]4CCC5=CC(=O)CC[C@]5(C)[C@H]4CC[C@]3(C)C2=O)cc1OC`, for which the TGI in the test on HOP-62 NSCLC was greater than 100 µM; in the test on KM12 colon, greater than 100 µM; with MALME-3M melanoma, greater than 100 µM; in the test on SF-295 CNS, greater than 100 µM; in the test on SK-MEL-2 melanoma it was 43.6 µM; in the test with SK-MEL-28 melanoma, greater than 100 µM. Also, the TGI with SNB-75 CNS was greater than 100 µM; in the test on T-47D breast it was greater than 100 µM; with UACC-257 melanoma, 68.4 µM.

As for `Cc1nc2sccn2c1/C=C1/C(=O)Nc2cccc(Cl)c21`, the TGI in the test on HOP-62 NSCLC, with KM12 colon, with MALME-3M melanoma, in the test with SF-295 CNS, in the test on SK-MEL-2 melanoma and in the test with SK-MEL-28 melanoma was greater than 100 µM in each case. For the same compound, the TGI in the test on SNB-75 CNS, in the test with T-47D breast, with TK-10 renal and in the test with UACC-257 melanoma was greater than 100 µM each time.

On to `Cn1c(N)nc(-c2ccc(Cl)cc2)c1SSc1c(-c2ccc(Cl)cc2)nc(N)n1C`, for which the TGI with HOP-62 NSCLC turned out to be 7.69 µM; in the test on KM12 colon, 3.46 µM; with MALME-3M melanoma, 4.57 µM; with SF-295 CNS, 21.4 µM; with SK-MEL-2 melanoma it was 32.1 µM; in the test on SK-MEL-28 melanoma it was 3.76 µM. Also, the TGI in the test with SNB-75 CNS amounted to 20.8 µM; in the test with T-47D breast it was 5.06 µM; in the test on TK-10 renal it was 3.32 µM; in the test with UACC-257 melanoma it was 3.52 µM.

On to `CC(=O)CC1=C(OC(C)C)C2(OCCO2)C1O` (configuration not stated), for which the TGI with HOP-62 NSCLC, with KM12 colon, in the test with MALME-3M melanoma, in the test with SF-295 CNS, with SK-MEL-2 melanoma and in the test on SK-MEL-28 melanoma was greater than 100 µM throughout. For the same compound, the TGI in the test on SNB-75 CNS, in the test with T-47D breast, in the test with TK-10 renal and in the test with UACC-257 melanoma was greater than 100 µM in each case.

With `ON=C(CC(O)(C(F)(F)Cl)C(F)(F)Cl)CC(O)(C(F)(F)Cl)C(F)(F)Cl`, the TGI with HOP-62 NSCLC was 9.78 µM; in the test with KM12 colon, greater than 10 µM; with MALME-3M melanoma it was greater than 10 µM; in the test on SF-295 CNS, greater than 10 µM; with SK-MEL-2 melanoma, 7.84 µM; in the test with SK-MEL-28 melanoma it was greater than 10 µM. The TGI in the test with SNB-75 CNS, in the test on T-47D breast, with TK-10 renal and in the test with UACC-257 melanoma was greater than 10 µM in each case.

As for `Cc1ccc(N/C(SCc2ccccc2)=C(\C(Cl)=C(Cl)Cl)[N+](=O)[O-])c(C)c1`, the TGI in the test on HOP-62 NSCLC was greater than 100 µM; in the test on KM12 colon it was greater than 100 µM; in the test with MALME-3M melanoma, 47.5 µM; in the test on SF-295 CNS, 94.9 µM; in the test on SK-MEL-2 melanoma, greater than 100 µM; in the test with SK-MEL-28 melanoma, 71.6 µM. Also, the TGI in the test on SNB-75 CNS was 85.9 µM; in the test with T-47D breast, 69.3 µM; in the test with UACC-257 melanoma, greater than 100 µM.

Regarding `COC(=O)CCC(NC(=O)OC(C)(C)C)C(=O)NC(Cc1ccc(NC(=O)CCCC(C)=O)cc1)C(=O)NC(CCC(=O)OC)C(=O)OC` (configuration not stated), the TGI with HOP-62 NSCLC, with KM12 colon, with MALME-3M melanoma, in the test with SF-295 CNS, in the test with SK-MEL-2 melanoma and with SK-MEL-28 melanoma was greater than 100 µM each time. For the same compound, the TGI in the test on SNB-75 CNS, in the test with T-47D breast, in the test with TK-10 renal and with UACC-257 melanoma was greater than 100 µM in each case.

Take `CC(=O)OC(Cc1c(O)c2c(C)cccc2oc1=O)C(C)(C)O` (configuration not stated): the TGI in the test on HOP-62 NSCLC, in the test with KM12 colon, with MALME-3M melanoma, in the test on SF-295 CNS, in the test with SK-MEL-2 melanoma and with SK-MEL-28 melanoma was greater than 100 µM in each case. Further, the TGI in the test on SNB-75 CNS, in the test on T-47D breast, in the test with TK-10 renal and in the test on UACC-257 melanoma was greater than 100 µM throughout.

Take `CCOC(=O)NN(C(=O)OCC)c1c(C)cc(C)cc1C`: the TGI with KM12 colon, with MALME-3M melanoma, in the test on SK-MEL-2 melanoma, in the test on SK-MEL-28 melanoma, in the test on SNB-75 CNS and in the test with T-47D breast was greater than 100 µM throughout. The TGI in the test with TK-10 renal and with UACC-257 melanoma was greater than 100 µM throughout.

On to `O=C(NNC(=O)c1csc(NC(=S)NC2CCCCC2)n1)c1ccccc1`, for which the TGI with HOP-62 NSCLC was 32.5 µM; in the test with KM12 colon, 28.8 µM; with MALME-3M melanoma, 43.2 µM; in the test with SF-295 CNS, 51.9 µM; in the test with SK-MEL-2 melanoma, 45 µM; in the test on SNB-75 CNS, greater than 100 µM. Moreover, the TGI came out at 17.3 µM in the test on T-47D breast, 85.6 µM in the test on TK-10 renal and 27.8 µM in the test with UACC-257 melanoma.

As to `Cc1cccc(N/C(Sc2ccccc2)=C(/C(Cl)=C(Cl)Cl)[N+](=O)[O-])c1`, the TGI in the test on HOP-62 NSCLC was 40.1 µM; with KM12 colon, 48.6 µM; with MALME-3M melanoma, 30.2 µM; in the test with SF-295 CNS it was 36.2 µM; in the test on SK-MEL-2 melanoma, greater than 100 µM; with SK-MEL-28 melanoma, 32.4 µM. The TGI in the test on SNB-75 CNS worked out at 68 µM; in the test on T-47D breast, 42.7 µM; with UACC-257 melanoma it was 47.2 µM.

For the compound `CN1CC2CN(Cc3ccccc3)CCN2c2cccnc21` (configuration not stated), the TGI was greater than 100 µM in the test on HOP-62 NSCLC; 89.1 µM in the test with KM12 colon; greater than 100 µM in the test on MALME-3M melanoma; greater than 100 µM in the test on SF-295 CNS; greater than 100 µM with SK-MEL-2 melanoma; greater than 100 µM with SNB-75 CNS. Further, the TGI with T-47D breast, with TK-10 renal and with UACC-257 melanoma was greater than 100 µM throughout.

For the compound `CC1C(C#N)(C#N)C(C#N)=C(N)C1(Cl)[N+](=O)[O-]` (configuration not stated), the TGI in the test on HOP-62 NSCLC is 9.72 µM; with KM12 colon it was 34.4 µM; in the test with MALME-3M melanoma it was 18.7 µM; in the test with SF-295 CNS, 36.1 µM; in the test on SK-MEL-2 melanoma it was 58 µM; in the test on SNB-75 CNS, 24.7 µM. For the same compound, the TGI with T-47D breast worked out at 42.7 µM; in the test with TK-10 renal, 28.2 µM; with UACC-257 melanoma it was 24.5 µM.
